From patent US20150105252A1, “SUBSTITUTED PYRAZOLES AS HERBICIDES” (E I DU PONT DE NEMOURS AND COMPANY, priority 2013, published 2015)

Key:
blackgrass [1] = test: Test C preemergence; format: in vivo, Alopecurus myosuroides; settings: for Plant response rating (scale of 0 to 100), Blackgrass: Preemergence
Summary of the method: (§1)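 In this greenhouse assay, seeded soil (loam plus sand) or emerged seedlings in peat-vermiculite medium were treated with formulated compound. Roughly two weeks later (13–15 days), each species was scored visually relative to controls, from 0 for no effect to 100 for complete control.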

pigweed [2] = test: Test C preemergence; format: in vivo, Amaranthus retroflexus
Summary of the method: as §1

foxtail, giant = test: Test A preemergence; format: in vivo, Setaria faberii; settings: preemergence
Summary of the method: (§2)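 Injury readout: eye-scored versus untreated controls, 0 to 100. Exposure period: ~10 days, greenhouse. Application: soil-directed spray over sown seed (pre) or spray on seedlings 2–10 cm tall with one or two leaves (post), compound carried in non-phytotoxic solvent including surfactant.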

blackgrass [3] = test: Test C postemergence; format: in vivo, Alopecurus myosuroides; settings: for Plant response rating (scale of 0 to 100 where 0 is no effect and 100 is complete control), Blackgrass: Postemergence, 31 g ai/ha, visually evaluated after 13 to 15 days; for Blackgrass plant response rating / Plant response rating, Blackgrass: postemergence; for Blackgrass plant response rating: 62 g ai/ha, scale 0 to 100
Summary of the method: as §1

wheat = test: Test A preemergence; format: in vivo, Triticum aestivum; settings: preemergence
Summary of the method: as §2

johnsongrass [4] = test: Test C preemergence; format: in vivo, Sorghum halepense
Summary of the method: as §1

velvetleaf = test: Test A preemergence; format: in vivo, Abutilon theophrasti; settings: preemergence
Summary of the method: as §2

lambsquarters = test: Test C preemergence; format: in vivo, Chenopodium album
Summary of the method: as §1

barnyardgrass = test: Test B flood; format: in vivo, Echinochloa crus-galli; settings: 250 g ai/ha, visual rating on 0 to 100 scale (0 no effect, 100 complete control), 13 to 15 days
Summary of the method: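 2-leaf plants; pots flooded 3 cm over soil; compound added to paddy water, depth kept constant. Greenhouse 13–15 d. Visual rating vs controls, 0–100 scale (100 = complete control); dash = no result.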

crabgrass, large = test: Test C postemergence; format: in vivo, Digitaria sanguinalis; settings: for Plant response rating (scale of 0 to 100 where 0 is no effect and 100 is complete control), Crabgrass, Large: Postemergence, 31 g ai/ha, visually evaluated after 13 to 15 days; for Crabgrass, Large plant response rating / Plant response rating, Crabgrass, Large: postemergence; for Crabgrass, Large plant response rating: 62 g ai/ha, scale 0 to 100
Summary of the method: as §1

oilseed rape = test: Test C postemergence; format: in vivo, Brassica napus; settings: for Plant response rating (scale of 0 to 100 where 0 is no effect and 100 is complete control), Oilseed Rape: Postemergence, 31 g ai/ha, visually evaluated after 13 to 15 days; for Oilseed Rape plant response rating / Plant response rating, Oilseed Rape: postemergence; for Oilseed Rape plant response rating: 62 g ai/ha, scale 0 to 100
Summary of the method: as §1

waterhemp = test: Test C postemergence; format: in vivo, Amaranthus rudis; settings: for Plant response rating (scale of 0 to 100 where 0 is no effect and 100 is complete control), Waterhemp: Postemergence, 31 g ai/ha, visually evaluated after 13 to 15 days; for Waterhemp plant response rating / Plant response rating, Waterhemp: postemergence; for Waterhemp plant response rating: scale 0 to 100
Summary of the method: as §1

johnsongrass [5] = test: Test C postemergence; format: in vivo, Sorghum halepense; settings: for Plant response rating (scale of 0 to 100 where 0 is no effect and 100 is complete control), Johnsongrass: Postemergence, 31 g ai/ha, visually evaluated after 13 to 15 days; for Johnsongrass plant response rating / Plant response rating, Johnsongrass: postemergence; for Johnsongrass plant response rating: 62 g ai/ha, scale 0 to 100
Summary of the method: as §1

pigweed [6] = test: Test A preemergence; format: in vivo, Amaranthus retroflexus; settings: preemergence
Summary of the method: as §2

[7] = preemergence, 31 g ai/ha, visual rating, scale 0 to 100 (0 no effect, 100 complete control), 13 to 15 days
[8] = preemergence, 62 g ai/ha, scale 0 to 100 (0 no effect, 100 complete control), 13 to 15 days
[9] = preemergence, 125 g ai/ha, scale 0 to 100, 0 is no effect, 100 is complete control
[10] = 125 g ai/ha, visual injury, 0 to 100 scale, approx. 10 days
[11] = 500 g ai/ha, visual injury after approx. 10 days, 0 to 100 scale (0 no effect, 100 complete control)
[12] = 250 g ai/ha, scale 0 to 100 (0 no effect, 100 complete control)
[13] = 125 g ai/ha, scale 0 to 100, 0 no effect, 100 complete control
[14] = preemergence, 125 g ai/ha, 13 to 15 days, scale 0 to 100, 0 = no effect, 100 = complete control
[15] = preemergence, 250 g ai/ha, scale 0 to 100, 0 is no effect, 100 is complete control
[16] = Preemergence, rate head not shown (block before 16 g ai/ha), scale 0 to 100
[17] = 125 g ai/ha, visual injury approx. 10 days after treatment

CCc1cc(C(=O)NCC(F)(F)F)nn1Cc1nc(C(F)(F)F)nn1C [Compound 107]
85: Plant response rating, Crabgrass, Large (crabgrass, large; [12])
95: Blackgrass plant response rating (blackgrass [1]; [7])
45: Plant response rating, Crabgrass, Large (crabgrass, large; [13])
90: Wheat plant response rating (wheat; [11]) | Johnsongrass plant response rating (johnsongrass [4]; [9]) | Velvetleaf plant response rating (velvetleaf; [10])
35: Plant response rating, Blackgrass (blackgrass [3]; [12])
5: Plant response rating (scale of 0 to 100 where 0 is no effect and 100 is complete control), Crabgrass, Large (crabgrass, large) | Plant response rating (scale of 0 to 100 where 0 is no effect and 100 is complete control), Oilseed Rape (oilseed rape) | Plant response rating (scale of 0 to 100 where 0 is no effect and 100 is complete control), Waterhemp (waterhemp) | Plant response rating, Johnsongrass (johnsongrass [5]; [13])
70: Plant response rating, Johnsongrass (johnsongrass [5]; [12])
80: Plant response rating, Oilseed Rape (oilseed rape; [12]) | Plant response rating, Waterhemp (waterhemp; [12])
40: Plant response rating, Barnyardgrass (barnyardgrass) | Waterhemp plant response rating (waterhemp; 62 g ai/ha) | Plant response rating, Waterhemp (waterhemp; [13])
10: Plant response rating (scale of 0 to 100 where 0 is no effect and 100 is complete control), Blackgrass (blackgrass [3]) | Blackgrass plant response rating (blackgrass [3]) | Wheat plant response rating (wheat; [10])
0: Plant response rating (scale of 0 to 100 where 0 is no effect and 100 is complete control), Johnsongrass (johnsongrass [5]) | Johnsongrass plant response rating (johnsongrass [5])
100: Plant response rating (scale of 0 to 100), Blackgrass (blackgrass [1]; 250 g ai/ha) | Blackgrass plant response rating (blackgrass [1]; [8]) | Blackgrass plant response rating (blackgrass [1]; [9]) | Plant response rating (scale of 0 to 100), Pigweed (pigweed [2]; Preemergence, 250 g ai/ha) | Pigweed plant response rating (pigweed [2]; [7]) | Pigweed plant response rating (pigweed [2]; [8]) | Pigweed plant response rating (pigweed [2]; [9]) | Foxtail, Giant plant response rating (foxtail, giant; [10]) | Foxtail, Giant plant response rating (foxtail, giant; [11]) | Plant response rating (scale of 0 to 100), Johnsongrass (johnsongrass [4]; Preemergence, 250 g ai/ha) | Velvetleaf plant response rating (velvetleaf; [11]) | Plant response rating (scale of 0 to 100), Lambsquarters (lambsquarters; Preemergence, 250 g ai/ha) | Lambsquarters plant response rating (lambsquarters; [7]) | Lambsquarters plant response rating (lambsquarters; [8]) | Lambsquarters plant response rating (lambsquarters; [9]) | Pigweed plant response rating (pigweed [6]; [10]) | Pigweed plant response rating (pigweed [6]; [11])
15: Plant response rating, Blackgrass (blackgrass [3]; [13])
60: Oilseed Rape plant response rating (oilseed rape) | Plant response rating, Oilseed Rape (oilseed rape; [13])
30: Johnsongrass plant response rating (johnsongrass [4]; [7]) | Crabgrass, Large plant response rating (crabgrass, large)
65: Johnsongrass plant response rating (johnsongrass [4]; [8])

CCc1cc(C(=O)NCC(F)(F)F)nn1Cc1cc(C(F)(F)F)nn1C [Compound 108, 5-ethyl-1-[[1-methyl-3-(trifluoromethyl)-1H-pyrazole-5-yl]methyl]-N-(2,2,2-trifluoroethyl)-1H-pyrazole-3-carboxamide]
35: Johnsongrass plant response rating (johnsongrass [4]; [7])
100: Plant response rating (scale of 0 to 100), Blackgrass (blackgrass [1]; 250 g ai/ha) | Blackgrass plant response rating (blackgrass [1]; [7]) | Blackgrass plant response rating (blackgrass [1]; [8]) | Blackgrass plant response rating (blackgrass [1]; [9]) | Plant response rating (scale of 0 to 100), Pigweed (pigweed [2]; Preemergence, 250 g ai/ha) | Pigweed plant response rating (pigweed [2]; [7]) | Pigweed plant response rating (pigweed [2]; [8]) | Pigweed plant response rating (pigweed [2]; [9]) | Foxtail, Giant plant response rating (foxtail, giant; [10]) | Foxtail, Giant plant response rating (foxtail, giant; [11]) | Wheat plant response rating (wheat; [11]) | Plant response rating (scale of 0 to 100), Johnsongrass (johnsongrass [4]; Preemergence, 250 g ai/ha) | Johnsongrass plant response rating (johnsongrass [4]; [9]) | Velvetleaf plant response rating (velvetleaf; [11]) | Plant response rating (scale of 0 to 100), Lambsquarters (lambsquarters; Preemergence, 250 g ai/ha) | Lambsquarters plant response rating (lambsquarters; [7]) | Lambsquarters plant response rating (lambsquarters; [8]) | Lambsquarters plant response rating (lambsquarters; [9]) | Pigweed plant response rating (pigweed [6]; [10]) | Pigweed plant response rating (pigweed [6]; [11])
10: Wheat plant response rating (wheat; [10]) | Crabgrass, Large plant response rating (crabgrass, large) | Plant response rating, Crabgrass, Large (crabgrass, large; [13])
55: Plant response rating, Oilseed Rape (oilseed rape; [12]) | Plant response rating, Oilseed Rape (oilseed rape; [13])
5: Blackgrass plant response rating (blackgrass [3]) | Plant response rating, Blackgrass (blackgrass [3]; [13]) | Plant response rating (scale of 0 to 100 where 0 is no effect and 100 is complete control), Crabgrass, Large (crabgrass, large) | Plant response rating (scale of 0 to 100 where 0 is no effect and 100 is complete control), Waterhemp (waterhemp) | Plant response rating, Johnsongrass (johnsongrass [5]; [12])
30: Plant response rating, Blackgrass (blackgrass [3]; [12])
40: Plant response rating, Barnyardgrass (barnyardgrass)
90: Johnsongrass plant response rating (johnsongrass [4]; [8])
0: Plant response rating (scale of 0 to 100 where 0 is no effect and 100 is complete control), Blackgrass (blackgrass [3]) | Plant response rating (scale of 0 to 100 where 0 is no effect and 100 is complete control), Johnsongrass (johnsongrass [5]) | Johnsongrass plant response rating (johnsongrass [5]) | Plant response rating, Johnsongrass (johnsongrass [5]; [13])
80: Plant response rating, Waterhemp (waterhemp; [12])
60: Velvetleaf plant response rating (velvetleaf; [10])
50: Plant response rating, Crabgrass, Large (crabgrass, large; [12]) | Plant response rating (scale of 0 to 100 where 0 is no effect and 100 is complete control), Oilseed Rape (oilseed rape) | Oilseed Rape plant response rating (oilseed rape) | Waterhemp plant response rating (waterhemp; 62 g ai/ha) | Plant response rating, Waterhemp (waterhemp; [13])

CCc1cc(C(=O)NC2CC2)nn1Cc1ccnc(Br)c1 [Compound 220]
30: Plant response rating, Oilseed Rape (oilseed rape; [13])
10: Plant response rating, Johnsongrass (johnsongrass [4]; [16]) | Plant response rating, Crabgrass, Large (crabgrass, large; [12])
0: Blackgrass plant response rating (blackgrass [1]; [7]) | Blackgrass plant response rating (blackgrass [1]; [8]) | Wheat plant response rating (0 to 100 scale) (wheat; [17]) | Plant response rating, Barnyardgrass (barnyardgrass) | Plant response rating (scale of 0 to 100 where 0 is no effect and 100 is complete control), Johnsongrass (johnsongrass [5]) | Johnsongrass plant response rating (johnsongrass [5])
98: Lambsquarters plant response rating (lambsquarters; [8])
65: Plant response rating, Pigweed (pigweed [2]; [16])
5: Plant response rating (scale of 0 to 100 where 0 is no effect and 100 is complete control), Blackgrass (blackgrass [3]) | Blackgrass plant response rating (blackgrass [3]) | Plant response rating, Blackgrass (blackgrass [3]; [13]) | Johnsongrass plant response rating (johnsongrass [4]; [8]) | Plant response rating, Johnsongrass (johnsongrass [4]; [14]) | Plant response rating (scale of 0 to 100 where 0 is no effect and 100 is complete control), Crabgrass, Large (crabgrass, large) | Crabgrass, Large plant response rating (crabgrass, large) | Plant response rating, Crabgrass, Large (crabgrass, large; [13]) | Oilseed Rape plant response rating (oilseed rape)
25: Plant response rating, Johnsongrass (johnsongrass [5]; [12])
80: Johnsongrass plant response rating (johnsongrass [4]; [15])
45: Plant response rating, Waterhemp (waterhemp; [12]) | Waterhemp plant response rating (waterhemp)
70: Blackgrass plant response rating (blackgrass [1]; [15])
100: Pigweed plant response rating (pigweed [2]; [8]) | Plant response rating, Pigweed (pigweed [2]; [14]) | Pigweed plant response rating (pigweed [2]; [15]) | Foxtail, Giant plant response rating (0 to 100 scale) (foxtail, giant; [17]) | Foxtail, Giant plant response rating (foxtail, giant; [11]) | Plant response rating, Lambsquarters (lambsquarters; [14]) | Lambsquarters plant response rating (lambsquarters; [15]) | Pigweed plant response rating (0 to 100 scale) (pigweed [6]; [17])
40: Plant response rating, Blackgrass (blackgrass [1]; [14]) | Plant response rating, Oilseed Rape (oilseed rape; [12])
60: Plant response rating, Lambsquarters (lambsquarters; [16])
20: Plant response rating, Blackgrass (blackgrass [3]; [12]) | Plant response rating, Johnsongrass (johnsongrass [5]; [13])
